“Also recorded” adds a separate entry of the source.

One assay relates to CD4+ T cells. The assay can be described thus: CFSE proliferation assay of CD4+ T cells after interaction with Ova/adjuvant-matured bone marrow derived DCs (APC). The format is cell-based, mice. Particulars: for capacity to induce antigen specific CD4+ T cell proliferation: DCs restimulated with Ovalbumin + 10 μg compound for 24 h, interaction with APC for 5 days, FIG. 3B. The source says: FIG. 3B: Cell proliferation tracked by CFSE dilution of CD4+ T cells after interaction with matured Antigen Presenting Cells (APC). With every cell division, the CFSE signal strength is approximately halved. The shown cell numbers indicate the ratio of proliferated live CD4+ T cells.
(§1) FIG. 4: Effect after treatment with IPB 0964-1917—Cell proliferation tracked by CFSE loss of T cells after interaction with matured Antigen Presenting Cells (APC). With every cell division, the CFSE signal strength is reduced. The shown cell numbers indicate the ratio of proliferating T and B cells (7 steps are shown). (A) Numbers of CD4+ T cells are shown at different proliferation steps up to 7 days measuring the loss of CFSE. Naïve cells were treated with one of IPB1901-1912 together with DCs activated with Ova prior to the CFSE assay. (B) Numbers of CD4+ T cells are shown at different proliferation steps up to 7 days measuring the loss of CFSE. Naïve cells were treated with one of IPB2033-2044 together with DCs activated with Ova prior to the CFSE assay. (C) Numbers of CD8+ T cells are shown at different proliferation steps up to 7 days measuring the loss of CFSE. Naïve cells were treated with one of IPB1901-1912 together with DCs activated with Ova prior to the CFSE assay. (D) Numbers of CD8+ T cells are shown at different proliferation steps up to 7 days measuring the loss of CFSE. Naïve cells were treated with one of IPB2033-2044 together with DCs activated with Ova prior to the CFSE assay.
(§2) In order to assess the properties of the inventive compounds in antigen-specific T and B cell stimulation, the compounds were administered to cultured bone marrow cells in a CFSE assay.
(§3) Briefly, femurs and Tibiae of female 4-12 weeks old C57Bl6 (or BALB/c for TCR HA) were removed and purified from the surrounding muscle tissue (Kleenex tissues). Intact Bones were left in 70% ethanol for 2-5 min for disinfection. Both ends were cut with scissors and the bone marrow were flushed with PBS using a syringe with a 0.45 mm diameter needle, clusters were disintegrated by vigorous pipetting.
(§4) In order to obtain activated antigen presenting dendritic cells (DCs), bone marrow cells were cultured with GM-CSF. On Day 0, cells were seeded in a concentration of 2×10^6 cells per 100 mm dish (bacteriological petri dishes) in 10 ml RPMI-10 (100 U Pen/100 μg Strept/2 mM Glutamin/50 μm ß-Mercaptoethanol/10% FCS heat-inactivated and filtered 0.22 μm Filter) containing 200 Units GM-CSF. On Day 3 another 10 ml RPMI-10 containing 200 U GM-CSF were added to the plates. On Day 6 half of the culture supernatants (10 ml) were collected, centrifuged and the cell pellet resuspended in 10 ml fresh RPMI-10/200 U GM-CSF and given back into the original plates.
(§5) Subsequently, the DCs were incubated with Ovalbumin (as antigen) alone or co-administered with known adjuvants, such as α-GalCerMPEG, aßGalCerMPEG or TLR2/6 ligand (BPPcysMPEG), or the novel phytosphingosine derivatives of the present invention. The activation of DCs was controlled by FACS analysis of different CD markers, such as CD40, CD54, CD80, CD86, CD83, MHCI and MHCII.
(§6) The effect of the compounds of the present invention was then ascertained via co-incubation of naïve T or B cells, obtained from mice (OTI or OTII mice) with previous exposure to the Ova antigen, with DCs that had been treated with the compounds of the invention.
(§7) Naïve T cells were derived from LN/spleen from OTI or OTII mice. The MagniSort™ Mouse CD4 naïve or CD8 naïve T cell Enrichment Kit is designed for the magnetic separation of CD4 or CD8 naïve T cells by negative selection from mouse spleens or lymph nodes utilizing a biotinylated antibody cocktail and streptavidin-coated magnetic beads. Undesired cells are bound by antibody (Anti-Mouse CD8 or CD4/CD11b CD19/CD24/CD44/CD45R(B220)/CD49b(Integrin α 2)/Ly-6G (Gr-1)/γδ TCR/TER-119) and then magnetic beads that, when placed in a magnetic field, leave CD4 or CD8 naïve T cells untouched and free in solution. […]

The subject of another assay is CD8+ T cells. The assay can be described thus: CFSE proliferation assay of CD8+ T cells after interaction with Ova/adjuvant-matured bone marrow derived DCs (APC). The format is cell-based, mice. The note with it: for effect to induce antigen specific CD8+ T cell proliferation: DCs restimulated with Ovalbumin + 10 μg compound for 24 h, interaction with APC for 5 days, FIG. 3C.
Description: FIG. 3C: Cell proliferation tracked by CFSE dilution of CD8+ T cells after interaction with matured Antigen Presenting Cells (APC). With every cell division, the CFSE signal strength is approximately halved. The shown cell numbers indicate the ratio of proliferated live CD8+ T cells
as §1, §2, §3, §4, §5, §6, §7

The subject of another assay is Ova-specific IgG. The assay can be described thus: Ova-specific IgG titer (ELISA) in sera of mice immunized with Ovalbumin plus adjuvant. The format is in vivo. Particulars: Ovalbumin 30 μg + adjuvant 15 μg, days 0, 14, 28, sera 14 days after last immunization. The method, then: FIG. 5: Immunization protocol—Administration (intramuscular route) of Ovalbumin with adjuvants. Ovalbumin (30 μg) was co-administered (intramuscular) without or with different adjuvants, such as IPB 2033-2044, c-di-AMP or aßGalCerMPEG (15 μg), on days 0, 14 and 28.
FIG. 7: Systemic humoral immune responses induced in mice. Shown is the IgG titer as a readout of systemic humoral immune responses induced in mice after three immunizations with Ovalbumin co-administered with different adjuvants via intramuscular route. Ova-specific IgG titers were measured via ELISA in sera 14 days after the last immunization.
FIG. 9: Immunization protocol—Administration (intranasal route) of Ovalbumin with adjuvants. Immunization protocol: Mucosal administration (intranasal (i.n.) route) of Ovalbumin (30 μg) co-administered without or with different adjuvants, such as IPB 2033-2044, c-di-AMP or aßGalCerMPEG (15 μg), on days 0, 14 and 28.
FIG. 11: Systemic humoral immune responses induced in mice. Shown is the IgG titer as a readout of systemic humoral immune responses induced in mice after three immunizations with Ovalbumin co-administered with different adjuvants via intranasal route. Ova-specific IgG titers in sera 14 days after the last immunization.
Groups of mice (3-5 animals) were immunized either intranasal (i.n.) or intramuscular (i.m.) on days 0, 14 and 281 with PBS, or with Ovalbumin (30 μg); the latter were administered alone or with different adjuvants—c-di-AMP, aßGalCerMPEG or IPB 2033 to 2044—made up to a maximal volume of 20 μl (i.n.) or 50 μl (i.m.) in PBS.
Blood samples were collected on days 1, 14, 28 and 42 via retro-bulbar bleeding. Spleens of vaccinated mice were aseptically removed. For the subsequent methods, cell suspensions of spleens (n=5) of each immunized groups were prepared and erythrocytes were lysed. These splenocyte pools of each group were cultured in the presence of different concentrations of Ovalbumin; controls received 5 μg/mL concanavalin A. The incorporation of [^3H] thymidine into the DNA of proliferating cells was determined using a scintillation counter (Wallac 1450, Micro-Trilux).
The Ova-specific antibodies were determined in serum samples by ELISA. Endpoint titers were expressed as reciprocal values of the last dilution, which gave an optical density at 405 nm of two times above the values of the negative controls. For calculation purposes, negative samples were assigned an arbitrary titer of the lowest dilution measured.
As described in the protocols above, groups of mice (3-5 animals) were immunized either intranasal (i.n.) or intramuscular (i.m.) on days 0, 14 and 281 with PBS, or with Ovalbumin (30 μg); the latter were administered alone or with different adjuvants—c-di-AMP, aßGalCerMPEG or IPB 2033 to 2044—is shown in FIG. 5-11, intramuscular.

The next assay concerns splenocytes. In words: Unspecific proliferation assay of splenocytes ([3H]thymidine incorporation). The note with it: for induction of unspecific proliferation in splenocytes: summary statement. The format is cell-based, mice. As for the experimental part: FIG. 2: Analysis of unspecific proliferative responses of murine cells stimulated without or with enhanced concentrations of the Phytosphingosine-compounds. Splenocytes from mice were re-stimulated for 96 h with different concentrations of adjuvant (1, 10 and 20 μg/ml). The results are presented by are expressed (A-C) as counts per minute (cpm) and (D-F) stimulation index (SI) being the ratio of [^3H]-thymidine uptake of stimulated versus non-stimulated samples. (A) and (D) show data for α-GalCer controls, (B) and (E) show data for IPB1901-1910, and (C) and (F) show data for IPB1911-1917.
In order to assess the properties of the inventive compounds in antigen-unspecific immune response stimulation the compounds were administered to splenocytes in an established proliferation assay.
For the proliferation assay, splenocytes (5×10^6 cells/ml) are seeded at 100 μl per well in a U-bottomed 96-well microtiter plate (Sarstedt Inc., Newton, N.C.) and cultured in quadruplicates 4 days in the presence of enhanced concentrations of adjuvant (1, 10 and 20 μg/ml)), 5 μg/ml of Concanavalin A (max); or medium alone. Eighteen hours before harvesting, 1 μCi of [3H]thymidine (Amersham International, Freiburg, Germany) is added to each well. Cells are harvested on paper filters (Filtermat A; Wallac, Freiburg, Germany) using a cell harvester (Inotech, Wohlen, Switzerland) and the incorporation of [3H] thymidine into the DNA of proliferating cells is determined using a scintillation counter (Wallac 1450, Micro-Trilux).
In general terms: Uptake of a labelled nucleoside into DNA is a usual measure of proliferation.

A further assay concerns CD19+ B cells. In words: CFSE proliferation assay of CD19+ B cells after interaction with Ova/adjuvant-matured bone marrow derived DCs (APC). The format is cell-based, mice. The note with it: DCs restimulated with Ovalbumin + 10 μg compound for 24 h; interaction with APC for 5 days; FIG. 3A. As for the experimental part:
FIG. 3A: Cell proliferation tracked by CFSE dilution of B cells after interaction with matured Antigen Presenting Cells (APC). With every cell division, the CFSE signal strength is approximately halved. The observed cell numbers indicate the ratio of proliferating viable CD19+ B cells.
as §2, §3, §4, §5, §6
CFSE staining of the CD4+ or CD8+ naïve T cells is then carried out according to standard procedures. Subsequently, 2-5×10^4 DCs (as mature antigen presenting cells APCs) are incubated with 4×10^5 CFSE+ T cells (OTI or OTII) per well (ratio DC/T cells is […]). A CFSE proliferation assay is then conducted, using on Day +5 or on Day +7 a FACS analysis (CFSE/LD/CD4/CD8/CD19/Thy1.1), providing a cell count for the desired cell type based on CFSE. With every cell division, the CFSE signal strength is approximately halved. The cells marked with CFSE can therefore be used to determine the proliferation of CD19+ B cells, CD4+ or CD8+ T cells in response to treatment with activated DCs, that were treated with or without the compounds of the invention.
As is shown in FIG. 3A, cell proliferation of B cells is tracked by CFSE dilution after interaction with APCs. With every cell division, the CFSE signal strength is approximately halved. Therefore, the compounds of the invention show an effect on inducing antigen specific CD19+ cell proliferation.
On day −1, mature DCs were restimulated with Ovalbumin (antigen) co-administered with 10 μg of the different novel phytosphingosine derivatives (0964-1917) or with positive controls (α-GalCerMPEG, aßGalCerMPEG, CDA or BPPcysPEGdef) for 24 h.

On to `CCCCCCCCCCCCCCCCCCCCCCCCCC(=O)N(CC(=O)NC1CCCCC1)[C@@H](CO[C@H]1OC(CO)[C@H](O)C(O)C1O)[C@H](O)[C@H](O)CCCCCCCCCCCCCC` (stereo partly shown) [IPB 2039], for which the “stimulating effect of CD4+ T cells versus controls with only antigen Ova” value with CD4+ T cells (CFSE loss up to 7 days, DCs activated with Ova + 10 μg compound, FIG. 4A/4B) is given as “stimulating effect of CD4+ T cells beyond controls”. Moreover, the “stimulating effect of CD8+ T cells versus controls with only antigen Ova” value with CD8+ T cells (CFSE loss up to 7 days, DCs activated with Ova + 10 μg compound, FIG. 4C/4D) is on record as “stimulating effect of CD8+ T cells beyond controls”. Moreover, the “stimulation of antigen specific IgG production compared to control aßGalCerMPEG+ova” value in the assay on Ova-specific IgG (intramuscular (i.m.), FIG. 7) was “improved stimulation”; in the assay on Ova-specific IgG (intranasal (i.n.), FIG. 11), “improved stimulation”.

As to `CCCCCCCCCCCCCCCCCCCCCCCC(=O)N(CC(=O)NCCC(=O)O)[C@@H](CO[C@H]1OC(CO)[C@H](O)C(O)C1O)[C@H](O)[C@H](O)CCCCCCCCCCCCCC` (stereo partly shown) [IPB 1910], the “capacity to induce antigen specific CD4+ T cell proliferation” value in the assay with CD4+ T cells is given as “high capacity; also recorded: beneficial capacity”. Also, the “effect to induce antigen specific CD8+ T cell proliferation” value with CD8+ T cells is “strong effect; also recorded: beneficial effect”. Besides, the “Stimulation index (SI)” value in the assay with splenocytes (splenocytes restimulated 96 h with 1, 10 and 20 μg/ml compound, ratio of [3H]-thymidine uptake of stimulated versus non-stimulated samples, FIG. 2E/2F) was “ca. 2”. Besides, the “induction of unspecific proliferation in splenocytes” value (shortened to “induction”) in the assay with splenocytes was “beneficial induction of unspecific proliferation”.

With `CCCCCCCCCCCCCCNC(=O)CN(C(=O)[C@@H](Cc1ccccc1)NC(C)=O)[C@@H](CO[C@H]1OC(CO)[C@H](O)C(O)C1O)[C@H](O)[C@H](O)CCCCCCCCCCCCCC` (stereo partly shown) [IPB 1904], the “capacity to induce antigen specific CD19+ B cell proliferation” value with CD19+ B cells is reported as “particularly high capacity; also recorded: beneficial capacity”. Besides, the “induction” value in the assay on splenocytes is “beneficial induction of unspecific proliferation”.

With `CCCCCCCCCCCCCCCCCCCCCCCC(=O)N(CC(=O)NCC(OC)OC)[C@@H](CO[C@H]1OC(CO)[C@H](O)C(O)C1O)[C@H](O)[C@H](O)CCCCCCCCCCCCCC` (stereo partly shown) [IPB 1911], the “capacity to induce antigen specific CD4+ T cell proliferation” value in the assay with CD4+ T cells was “high capacity; also recorded: beneficial capacity”. The “effect to induce antigen specific CD8+ T cell proliferation” value with CD8+ T cells was “strong effect; also recorded: beneficial effect”. Further, the “induction” value with splenocytes was “beneficial induction of unspecific proliferation”.

The values are drawn from patent US12564631B2, “Phytosphingosine derivatives as adjuvants in immune stimulation” (Helmholtz-Zentrum für Infektionsforschung GmbH, priority 2020, dated 2026).
